One assay has as its target recombinant human PARP (Homo sapiens, UniProt P09874). The assay can be described thus: Measurement of PARP enzymatic activity (transfer of radiolabeled ADP-ribose from NAD+ to protein acceptor). The settings on record: PARP IC50 (nM), Table 8. The assay is classed as biochemical. As to the method: PARP activity was monitored by transfer of radiolabeled ADP-ribose units from [^32]NAD^+ to a protein acceptor such as histone or PARP itself. […] The reactions were initiated by the addition of 100 μM NAD^+ supplemented with 2 uCi [^32]NAD^+/mL and maintained at room temperature for 12 minutes. […] The amount of acid-insoluble radioactivity, corresponding to polyADP-ribosylated protein, was quantitated in a Wallac MicroBeta scintillation counter.
Single-point inhibition data were calculated by comparing PARP, VEGFR2, or MLK3 activity in the presence of inhibitor to activity in the presence of DMSO only. Inhibition curves for compounds were generated by plotting percent inhibition versus log10 of the concentration of compound. IC50 values were calculated by nonlinear regression using the sigmoidal dose-response (variable slope) equation in GraphPad Prism as follows: y=bottom+(top−bottom)/(1+10^(log IC50^−x)*Hillslope) where y is the % activity at a given concentration of compound, x is the logarithm of the concentration of compound, bottom is the % inhibition at the lowest compound concentration tested, and top is the % inhibition at the highest compound concentration examined. The values for bottom and top were fixed at 0 and 100, respectively. IC50 values were reported as the average of at least three separate determinations.
For some compounds, inhibiting data is presented as percent inhibition at a specified concentration. Compounds are tabulated together with compound number, substituents, and enzyme inhibition data.
Sequence of recombinant human PARP (P09874 whole entry): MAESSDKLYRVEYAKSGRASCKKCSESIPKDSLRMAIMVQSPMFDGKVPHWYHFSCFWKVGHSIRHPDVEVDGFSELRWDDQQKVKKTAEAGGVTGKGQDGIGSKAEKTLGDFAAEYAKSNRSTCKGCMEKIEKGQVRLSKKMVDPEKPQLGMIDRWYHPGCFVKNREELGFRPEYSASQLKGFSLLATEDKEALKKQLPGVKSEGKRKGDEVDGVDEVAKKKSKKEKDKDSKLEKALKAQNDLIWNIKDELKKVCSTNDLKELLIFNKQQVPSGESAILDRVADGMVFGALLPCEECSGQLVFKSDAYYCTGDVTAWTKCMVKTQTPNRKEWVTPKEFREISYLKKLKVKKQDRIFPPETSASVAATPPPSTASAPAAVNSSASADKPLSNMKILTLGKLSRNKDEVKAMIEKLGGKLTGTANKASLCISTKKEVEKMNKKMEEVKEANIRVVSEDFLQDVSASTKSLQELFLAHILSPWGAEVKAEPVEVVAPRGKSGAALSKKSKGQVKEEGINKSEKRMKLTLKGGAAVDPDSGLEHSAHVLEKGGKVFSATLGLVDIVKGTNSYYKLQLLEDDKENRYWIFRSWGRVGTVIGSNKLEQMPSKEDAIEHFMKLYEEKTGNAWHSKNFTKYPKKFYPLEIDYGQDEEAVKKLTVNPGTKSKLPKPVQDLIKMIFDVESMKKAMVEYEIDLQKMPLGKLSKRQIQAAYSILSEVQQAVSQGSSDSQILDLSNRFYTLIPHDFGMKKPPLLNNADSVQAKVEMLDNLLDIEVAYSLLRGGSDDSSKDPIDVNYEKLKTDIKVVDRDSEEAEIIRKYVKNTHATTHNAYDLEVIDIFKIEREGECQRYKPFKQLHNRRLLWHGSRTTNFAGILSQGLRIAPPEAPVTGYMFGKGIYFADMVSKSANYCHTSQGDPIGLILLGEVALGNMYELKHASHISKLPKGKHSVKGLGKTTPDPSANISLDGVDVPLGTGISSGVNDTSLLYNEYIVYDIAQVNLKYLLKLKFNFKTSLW
In the case of `O=C(NCCCn1ccnc1)Oc1ccc2[nH]c3c4c(c5c(c3c2c1)C(=O)NC5=O)CCC4` [Compound 15d], the IC50 (usually the midpoint of a concentration-inhibition curve) came to 32 nM.

As for `O=C(NCCc1ccccn1)Oc1ccc2[nH]c3c4c(c5c(c3c2c1)C(=O)NC5=O)CCC4` [Compound 15m], the IC50 stood at 31 nM.

For `O=C(NCCCN1CCCC1=O)Oc1ccc2[nH]c3c4c(c5c(c3c2c1)C(=O)NC5=O)CCC4` [Compound 15e], the IC50 was 28 nM.

As to `O=C1NC(=O)c2c1c1c(c3[nH]c4ccc(OC(=O)N5CCOCC5)cc4c23)CCC1` [Compound 15a], the IC50 worked out at 35 nM.

Still in this assay, the particulars now being: PARP IC50, Table 18.
Consider `O=C1NC(=O)c2c1c1c(c3[nH]c4ccc(OC(=O)N5CCOCCOCCOCC5)cc4c23)CCC1` [Compound 15o], for which the IC50 came to 76 nM.

Staying with this assay, now noted: Table 1; read-out: PARP IC50.
With `O=C1c2c3c(c4[nH]c5ccccc5c4c2C(=O)N1CCCO)CCC3` [Compound 1e], the IC50 is 946 nM.

Regarding `CC(C)(C)OC(=O)NCCCC[C@H](NC(=O)OC(C)(C)C)C(=O)n1c2ccccc2c2c3c(c4c(c21)CCC4)C(=O)NC3` [Compound 1u, 11-[Bis(t-butoxycarbonyl)-L-lysyl]-5,7,8,9,10,11-hexahydrocyclopent[a]pyrrolo[3,4-c]carbazole-7(6H)-one], the IC50 came to 1500 nM.

Still in this assay, the particulars now being: Table 2; read-out: PARP IC50.
Take `CCCN(CCC)Cc1ccc2[nH]c3c4c(c5c(c3c2c1)C(=O)NC5=O)CCC4` [Compound 2bl]: the IC50 was 16 nM.

Turning to `CN(CC1CCNCC1)C(=O)c1ccc2[nH]c3c4c(c5c(c3c2c1)C(=O)NC5=O)CCC4` [Compound 2cy], the 50% inhibitory concentration (IC50) is 23 nM.

As to `NC(N)=Nc1nc(-c2ccc3[nH]c4c5c(c6c(c4c3c2)C(=O)NC6=O)CCC5)cs1` [Compound 3g], the IC50 amounted to 19 nM.

Turning to `CN(C)Cc1ccc2[nH]c3c4c(c5c(c3c2c1)C(=O)NC5=O)CCC4` [Compound 2bj], the 50% inhibitory concentration (IC50) amounted to 29 nM.

Regarding `O=C1NC(=O)c2c1c1c(c3[nH]c4ccc(CN5CCCC5)cc4c23)CCC1` [Compound 2bw], the IC50 turned out to be 35 nM.

As to `O=C(CCC(=O)N1CCCC1)c1ccc2[nH]c3c4c(c5c(c3c2c1)C(=O)NC5=O)CCC4` [Compound 4t], the IC50 came out at 16 nM.

Turning to `O=C(CCC(=O)N1CCCCCCC1)c1ccc2[nH]c3c4c(c5c(c3c2c1)C(=O)NC5=O)CCC4` [Compound 4s], the IC50 worked out at 26 nM.

For `O=C(Cn1cncn1)c1ccc2[nH]c3c4c(c5c(c3c2c1)C(=O)NC5=O)CCC4` [Compound 2n], the IC50 turned out to be 15 nM.

`CN(C)CCOC(=O)c1ccc2[nH]c3c4c(c5c(c3c2c1)C(=O)NC5=O)CCC4` [Compound 2cz]: the IC50 is 30 nM.

Turning to `CC(C)(C)S(=O)(=O)Cc1nc(-c2ccc3[nH]c4c5c(c6c(c4c3c2)C(=O)NC6=O)CCC5)cs1` [Compound 3p], the IC50 came to 21 nM.

For `O=C(Cn1cnnn1)NCc1ccc2[nH]c3c4c(c5c(c3c2c1)C(=O)NC5=O)CCC4` [Compound 2by], the half-inhibitory concentration (IC50) was found to be 14 nM.

As for `O=C(NCCc1ccccn1)c1ccc2[nH]c3c4c(c5c(c3c2c1)C(=O)NC5=O)CCC4` [Compound 2cv], the IC50 is 18 nM.

`CC(C)(C)OC(=O)[C@@H]1CCCN1C(=O)CCC(=O)c1ccc2[nH]c3c4c(c5c(c3c2c1)C(=O)NC5=O)CCC4` [Compound 4h]: the IC50 was determined as 7 nM.

On to `CNCc1ccc2[nH]c3c4c(c5c(c3c2c1)C(=O)NC5=O)CCC4` [Compound 2bt], for which the IC50 was found to be 25 nM.

With `CN(C)CCN(C)C(=O)c1ccc2[nH]c3c4c(c5c(c3c2c1)C(=O)NC5=O)CCC4` [Compound 2cu], the IC50 came to 151 nM.

As for `NCCNC(=O)CCC(=O)c1ccc2[nH]c3c4c(c5c(c3c2c1)C(=O)NC5=O)CCC4` [Compound 4e], the IC50 was found to be 22 nM.

Take `CC(C)(C)OC(=O)NCc1ccc2[nH]c3c4c(c5c(c3c2c1)C(=O)NC5=O)CCC4` [Compound 2ad, 3-(N-Boc-aminomethyl)-5,7,8,9,10,11-hexahydrocyclopent[a]pyrrolo[3,4-c]carbazole-5(6H), 7-dione]: the IC50 is 93 nM.

For the molecule `O=C1NC(=O)c2c1c1c(c3[nH]c4ccc(CNCc5ccccc5)cc4c23)CCC1` [Compound 2bq], the IC50 amounted to 26 nM.

Take `CCOCCOc1ccc2[nH]c3c4c(c5c(c3c2c1)C(=O)NC5=O)CCC4` [Compound 2aq]: the IC50 worked out at 59 nM.

With `O=C(NCCN1CCOCC1)c1ccc2[nH]c3c4c(c5c(c3c2c1)C(=O)NC5=O)CCC4` [Compound 2cn], the IC50 came out at 26 nM.

Take `CNc1nc(-c2ccc3[nH]c4c5c(c6c(c4c3c2)C(=O)NC6=O)CCC5)cs1` [Compound 3h]: the IC50 came to 54 nM.

For `O=C(O)c1nccnc1C(=O)c1ccc2[nH]c3c4c(c5c(c3c2c1)C(=O)NC5=O)CCC4` [Compound 4k], the IC50 came to 1 nM.

For `CC(Br)C(=O)c1ccc2[nH]c3c4c(c5c(c3c2c1)C(=O)NC5=O)CCC4` (stereo not shown) [Compound 2f], the IC50 was determined as 21 nM.

Turning to `O=C1NC(=O)c2c1c1c(c3[nH]c4ccc(CO)cc4c23)CCC1` [Compound 2aw], the IC50 was determined as 22 nM.

Take `CCNC(=O)NCc1nc(-c2ccc3[nH]c4c5c(c6c(c4c3c2)C(=O)NC6=O)CCC5)cs1` [Compound 3o]: the IC50 was determined as 20 nM.

Take `CC(O)c1ccc2[nH]c3c4c(c5c(c3c2c1)C(=O)NC5=O)CCC4` (stereo not shown) [Compound 2ax]: the IC50 was 102 nM.

In the case of `COC(=O)CCC(=O)NCc1ccc2[nH]c3c4c(c5c(c3c2c1)C(=O)NC5=O)CCC4` [Compound 2z, 3-(N-(3-(Methoxycarbonyl)propanoyl)aminomethyl)-5,7,8,9,10,11-hexahydrocyclopent[a]pyrrolo[3,4-c]carbazole-5(6H), 7-dione], the IC50 stood at 10 nM.

Consider `O=C1NC(=O)c2c1c1c(c3[nH]c4ccc(OCCN5CCOCC5)cc4c23)CCC1` [Compound 2at], for which the IC50 stood at 22 nM.

Regarding `N#Cc1ccc2[nH]c3c4c(c5c(c3c2c1)C(=O)NC5=O)CCC4` [Compound 2o, 3-Cyano-5,7,8,9,10,11-hexahydrocyclopent[a]pyrrolo[3,4-c]carbazole-5(6H), 7-dione], the IC50 stood at 14 nM.

As to `CC(C)(C)OC(=O)NCC(=O)NCc1ccc2[nH]c3c4c(c5c(c3c2c1)C(=O)NC5=O)CCC4` [Compound 2v, 3-(N-(2-(N-Boc-amino)acetyl)aminomethyl)-5,7,8,9,10,11-hexahydrocyclopent[a]pyrrolo[3,4-c]carbazole-5(6H), 7-dione], the IC50 turned out to be 33 nM.

For `CCCC(=O)NCc1ccc2[nH]c3c4c(c5c(c3c2c1)C(=O)NC5=O)CCC4` [Compound 2t, 3-(Butanoylaminomethyl)-5,7,8,9,10,11-hexahydrocyclopent[a]pyrrolo[3,4-c]carbazole-5(6H), 7-dione], the IC50 was 44 nM.

Regarding `CCCC(=O)NCc1nc(-c2ccc3[nH]c4c5c(c6c(c4c3c2)C(=O)NC6=O)CCC5)cs1` [Compound 3u], the IC50 was 42 nM.

Consider `COC(=O)CCCC(=O)NCc1ccc2[nH]c3c4c(c5c(c3c2c1)C(=O)NC5=O)CCC4` [Compound 2aa, 3-(N-(4-(Methoxycarbonyl)butanoyl)aminomethyl)-5,7,8,9,10,11-hexahydrocyclopent[a]pyrrolo[3,4-c]carbazole-5(6H), 7-dione], for which the IC50 was 9 nM.

Consider `O=C1NC(=O)c2c1c1c(c3[nH]c4ccc(CN5CCCCC5)cc4c23)CCC1` [Compound 2bx], for which the IC50 is 35 nM.

Regarding `COC(=O)C(=O)c1ccc2[nH]c3c4c(c5c(c3c2c1)C(=O)NC5=O)CCC4` [Compound 2ba], the IC50 worked out at 12 nM.

For `Nc1nc(-c2ccc3[nH]c4c5c(c6c(c4c3c2)C(=O)NC6=O)CCC5)cs1` [Compound 3a], the IC50 amounted to 25 nM.

On to `CN(Cc1ccncc1)C(=O)c1ccc2[nH]c3c4c(c5c(c3c2c1)C(=O)NC5=O)CCC4` [Compound 2cx], for which the IC50 was 10 nM.

For `O=C(NCCN1CCCCC1)c1ccc2[nH]c3c4c(c5c(c3c2c1)C(=O)NC5=O)CCC4` [Compound 2cm], the IC50 is 148 nM.

As for `NC(=O)[C@@H]1CCCN1C(=O)CCC(=O)c1ccc2[nH]c3c4c(c5c(c3c2c1)C(=O)NC5=O)CCC4` [Compound 4o], the IC50 worked out at 13 nM.

For `O=C(NCc1ccc2[nH]c3c4c(c5c(c3c2c1)C(=O)NC5=O)CCC4)c1ccccc1` [Compound 2u, 3-(Benzoylaminomethyl)-5,7,8,9,10,11-hexahydrocyclopent[a]pyrrolo[3,4-c]carbazole-5(6H), 7-dione], the IC50 was found to be 37 nM.

Still in this assay, the particulars now being: Table 18; read-out: PARP IC50.
Take `O=C1NC(=O)c2c1c1c(c3[nH]c4nc(O)ccc4c23)CCC1` [Compound 8n]: the IC50 was found to be 6 nM.

For the molecule `COc1cc[n+]([O-])c2[nH]c3c4c(c5c(c3c12)C(=O)NC5=O)CCC4` [Compound 8m], the IC50 turned out to be 17 nM.

Consider `CCOc1ccnc2[nH]c3c4c(c5c(c3c12)C(=O)NC5=O)CCC4` [Compound 8y], for which the IC50 stood at 5 nM.

Consider `O=C1NC(=O)c2c1c1c(c3[nH]c4nc(O)c(Br)cc4c23)CCC1` [Compound 8p], for which the IC50 was 20 nM.

Consider `COc1c(I)ccc2[nH]c3c4c(c5c(c3c12)C(=O)NC5=O)CCC4` [Compound 14n], for which the IC50 is 126 nM.

Take `CO[n+]1cccc2c3c4c(c5c(c3[nH]c21)CCC5)C(=O)NC4=O` [Compound 8o]: the IC50 turned out to be 4 nM.

Take `CC(C)Oc1cccc2[nH]c3c4c(c5c(c3c12)C(=O)NC5=O)CCC4` [Compound 14h]: the IC50 amounted to 207 nM.

For `O=C1NC(=O)c2c1c1c(c3[nH]c4cccc(OCCO)c4c23)CCC1` [Compound 14k], the IC50 was determined as 83 nM.
